Measurements from ChEMBL document CHEMBL5303573, “Mapping human microbiome drug metabolism by gut bacteria and their genes” (Nature, 2019).

What was measured:
[1] = The drug is tested on Ruminococcus gnavus strain: ATCC29149 for biotransformation. The drug concentrations were measured before and after a 12-h incubation by liquid-chromatography-coupled mass spectrometry (LC–MS); conditions: mediterraneibacter gnavus, 2 µM
[2] = bacteroides eggerthii, 12 h, 2 µM
Description: The drug is tested on Bacteroides eggerthii strain: DSM20697 for biotransformation. The drug concentrations were measured before and after a 12-h incubation by liquid-chromatography-coupled mass spectrometry (LC–MS)

[3] = victivallis vadensis, 12 h, 2 µM
Description: The drug is tested on Victivallis vadensis strain: ATCC BAA-548 for biotransformation. The drug concentrations were measured before and after a 12-h incubation by liquid-chromatography-coupled mass spectrometry (LC–MS)

[4] = The drug is tested on Subdoligranulum variabile strain: DSM15176 for biotransformation. The drug concentrations were measured before and after a 12-h incubation by liquid-chromatography-coupled mass spectrometry (LC–MS); conditions: 2 µM
[5] = molecular target: T1, 3-oxo-5-alpha-steroid 4-dehydrogenase (Bacteroides thetaiotaomicron, UniProt Q8A618); assay: (§1) The drug is tested on Bacteroides thetaiotaomicron strain: VPI-5482 for biotransformation. The drug concentrations were measured before and after a 12-h incubation by liquid-chromatography-coupled mass spectrometry (LC–MS); type: ADME; design: dose 2 uM; conditions: 2 µM
T1 sequence (Q8A618 whole entry): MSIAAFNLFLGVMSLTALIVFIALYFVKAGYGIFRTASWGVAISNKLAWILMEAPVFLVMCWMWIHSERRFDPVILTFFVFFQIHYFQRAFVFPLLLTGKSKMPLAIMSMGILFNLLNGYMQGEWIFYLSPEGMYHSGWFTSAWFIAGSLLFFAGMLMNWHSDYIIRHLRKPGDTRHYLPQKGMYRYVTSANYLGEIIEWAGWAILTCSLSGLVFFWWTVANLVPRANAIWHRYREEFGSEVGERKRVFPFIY

[6] = molecular target: T2, Lipolytic enzyme, G-D-S-L family (Bacteroides thetaiotaomicron, UniProt Q8A0C5); assay: as §1; type: ADME; design: dose 2 uM; conditions: 2 µM
T2 sequence (Q8A0C5 whole entry): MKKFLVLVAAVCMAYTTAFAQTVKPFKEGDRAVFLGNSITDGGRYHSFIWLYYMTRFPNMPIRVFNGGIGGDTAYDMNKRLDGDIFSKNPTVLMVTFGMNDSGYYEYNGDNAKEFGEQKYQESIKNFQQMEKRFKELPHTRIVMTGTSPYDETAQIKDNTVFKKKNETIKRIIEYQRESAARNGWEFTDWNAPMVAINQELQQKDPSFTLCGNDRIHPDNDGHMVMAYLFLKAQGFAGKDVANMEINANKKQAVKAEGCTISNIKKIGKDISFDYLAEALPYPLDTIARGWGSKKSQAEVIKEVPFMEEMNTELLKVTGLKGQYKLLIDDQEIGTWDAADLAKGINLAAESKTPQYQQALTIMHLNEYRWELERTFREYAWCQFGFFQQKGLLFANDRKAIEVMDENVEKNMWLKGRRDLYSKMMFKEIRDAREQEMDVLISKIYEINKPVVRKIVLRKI

[7] = molecular target: T3, Lipolytic enzyme, G-D-S-L family (Bacteroides thetaiotaomicron, UniProt Q8A0E6); assay: as §1; type: ADME; design: dose 2 uM; conditions: 2 µM
T3 sequence (Q8A0E6 whole entry): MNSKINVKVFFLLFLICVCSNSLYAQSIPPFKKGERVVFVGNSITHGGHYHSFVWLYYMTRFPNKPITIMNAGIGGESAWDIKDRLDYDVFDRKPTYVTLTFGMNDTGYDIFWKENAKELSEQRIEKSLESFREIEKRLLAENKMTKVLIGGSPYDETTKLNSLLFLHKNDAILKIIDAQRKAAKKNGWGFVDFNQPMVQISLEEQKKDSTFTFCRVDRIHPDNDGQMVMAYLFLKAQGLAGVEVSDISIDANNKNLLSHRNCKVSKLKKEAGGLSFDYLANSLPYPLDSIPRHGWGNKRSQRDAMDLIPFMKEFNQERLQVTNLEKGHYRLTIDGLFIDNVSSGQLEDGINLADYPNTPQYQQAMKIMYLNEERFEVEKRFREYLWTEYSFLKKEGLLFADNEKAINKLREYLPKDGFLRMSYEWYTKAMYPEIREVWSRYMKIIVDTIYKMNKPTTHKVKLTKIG

[8] = molecular target: T4, Nitroreductase-like protein (Bacteroides thetaiotaomicron, UniProt Q8AB93); assay: as §1; type: ADME; design: dose 2 uM; conditions: 2 µM
T4 sequence (Q8AB93 whole entry): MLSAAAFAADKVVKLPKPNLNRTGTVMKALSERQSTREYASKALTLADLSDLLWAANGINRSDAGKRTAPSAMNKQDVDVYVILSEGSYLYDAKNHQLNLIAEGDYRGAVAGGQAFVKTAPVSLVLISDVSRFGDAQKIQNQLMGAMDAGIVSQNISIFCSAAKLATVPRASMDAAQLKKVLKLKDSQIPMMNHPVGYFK

[9] = The drug is tested on Bacteroides uniformis strain: ATCC8492 for biotransformation. The drug concentrations were measured before and after a 12-h incubation by liquid-chromatography-coupled mass spectrometry (LC–MS); conditions: 2 µM
[10] = The drug is tested on Eggerthella lenta strain: ATCC25559 for biotransformation. The drug concentrations were measured before and after a 12-h incubation by liquid-chromatography-coupled mass spectrometry (LC–MS); conditions: 2 µM
[11] = The drug is tested on Clostridium spiroforme strain: DSM1552 for biotransformation. The drug concentrations were measured before and after a 12-h incubation by liquid-chromatography-coupled mass spectrometry (LC–MS); conditions: thomasclavelia spiroformis, 2 µM
[12] = The drug is tested on Bacteroides fragilis strain: T(B)9 for biotransformation. The drug concentrations were measured before and after a 12-h incubation by liquid-chromatography-coupled mass spectrometry (LC–MS); conditions: 2 µM
[13] = The drug is tested on Eubacterium biforme strain: DSM3989 for biotransformation. The drug concentrations were measured before and after a 12-h incubation by liquid-chromatography-coupled mass spectrometry (LC–MS); conditions: holdemanella biformis, 2 µM
[14] = The drug is tested on Clostridium hathewayi strain: DSM13479 for biotransformation. The drug concentrations were measured before and after a 12-h incubation by liquid-chromatography-coupled mass spectrometry (LC–MS); conditions: hungatella hathewayi, 2 µM
[15] = The drug is tested on Providencia alcalifaciens strain: DSM30120 for biotransformation. The drug concentrations were measured before and after a 12-h incubation by liquid-chromatography-coupled mass spectrometry (LC–MS); conditions: 2 µM
[16] = clostridioides difficile, 12 h, 2 µM
Description: The drug is tested on Clostridium difficile strain: 120 for biotransformation. The drug concentrations were measured before and after a 12-h incubation by liquid-chromatography-coupled mass spectrometry (LC–MS)

[17] = The drug is tested on Clostridium sp. strain: fecal isolate for biotransformation. The drug concentrations were measured before and after a 12-h incubation by liquid-chromatography-coupled mass spectrometry (LC–MS); conditions: 2 µM
[18] = The drug is tested on Salmonella typhimurium strain: LT2 for biotransformation. The drug concentrations were measured before and after a 12-h incubation by liquid-chromatography-coupled mass spectrometry (LC–MS); conditions: salmonella enterica subsp. enterica, 2 µM
[19] = The drug is tested on Proteus penneri strain: ATCC35198 for biotransformation. The drug concentrations were measured before and after a 12-h incubation by liquid-chromatography-coupled mass spectrometry (LC–MS); conditions: 2 µM

Compound	Bacterial Biotransformation [1]	Bacterial Biotransformation [2]	Bacterial Biotransformation [3]	Bacterial Biotransformation [4]	Bacterial Biotransformation [5]	Bacterial Biotransformation [6]	Bacterial Biotransformation [7]	Bacterial Biotransformation [8]	Bacterial Biotransformation [9]	Bacterial Biotransformation [10]	Bacterial Biotransformation [11]	Bacterial Biotransformation [12]	Bacterial Biotransformation [13]	Bacterial Biotransformation [14]	Bacterial Biotransformation [15]	Bacterial Biotransformation [16]	Bacterial Biotransformation [17]	Bacterial Biotransformation [18]	Bacterial Biotransformation [19]
N#Cc1ccc2c(c1)N(CCCN1CCC(O)CC1)c1ccccc1S2 [PERICIAZINE]	Compound NOT metabolized	Compound NOT metabolized	Compound NOT metabolized	Compound NOT metabolized	Compound NOT metabolized	Compound NOT metabolized	Compound NOT metabolized	Compound NOT metabolized	Compound NOT metabolized	Compound NOT metabolized									
Cc1nc(-c2ccc(OCC(C)C)c(C#N)c2)sc1C(=O)O [FEBUXOSTAT]	Compound NOT metabolized	Compound NOT metabolized		Compound NOT metabolized					Compound metabolized		Compound NOT metabolized	Compound metabolized	Compound NOT metabolized	Compound NOT metabolized	Compound NOT metabolized	Compound NOT metabolized	Compound NOT metabolized	Compound NOT metabolized	
Nc1nc2ccc(OC(F)(F)F)cc2s1 [RILUZOLE]	Compound NOT metabolized	Compound metabolized	Compound NOT metabolized	Compound NOT metabolized					Compound metabolized	Compound NOT metabolized	Compound NOT metabolized	Compound metabolized	Compound NOT metabolized	Compound NOT metabolized	Compound NOT metabolized	Compound NOT metabolized	Compound metabolized	Compound NOT metabolized	Compound NOT metabolized
C[C@]12CCC(=O)C=C1[C@@H]1C[C@@H]1[C@H]1[C@@H]3[C@@H]4C[C@@H]4[C@@]4(CCC(=O)O4)[C@@]3(C)CC[C@@H]12 [DROSPIRENONE]	Compound metabolized	Compound NOT metabolized	Compound NOT metabolized	Compound NOT metabolized	Compound NOT metabolized	Compound NOT metabolized	Compound NOT metabolized	Compound NOT metabolized	Compound metabolized	Compound NOT metabolized							Compound NOT metabolized		
N#Cc1ccc2[nH]cc(CCCCN3CCN(c4ccc5oc(C(N)=O)cc5c4)CC3)c2c1 [VILAZODONE]	Compound NOT metabolized	Compound metabolized		Compound NOT metabolized					Compound metabolized		Compound metabolized	Compound metabolized	Compound NOT metabolized	Compound NOT metabolized	Compound NOT metabolized		Compound NOT metabolized	Compound NOT metabolized	Compound NOT metabolized
